The text below walks through data of patent US20220400670A1, “PROTOPANAXATRIOL (PPT)-TYPE COMPOUNDS AS ACTIVE INGREDIENTS IN INSECTICIDE PRODUCTS” (priority 2019, published 2022).

The subject of test [1] is Pink Bollworm (Pectinophora gossypiella). The experiment in a line: Lab tests on pink bollworm eggs: hatching and larva development. The test is classed as in vivo. The note with it: 0.15% PPT solution, 5 repeats. The text has this:
Paper cuttings with Egg clusters of pink bollworm were soaked in a 0.15% PPT solution, and hatching and larva development were observed compared to untreated controls (UTC).

Test [2] deals with Thrips tabaci. In words: Field tests in cucumber: number of Thrips on leaves. To be noted: second experiment. The class given is in vivo. The text has this:
Cucumber plants of kingstar variety at 170-190 cm height were sprayed twice at a 4 days interval with the indicted materials at a volume of 400-600 liter per hectare, using 3-nozzled ECHO backpack sprayer. The experiment included 4 repeats in random blocks of cucumber plants growth, each repeat at an area of 10-16 m^2. Plots having high levels of Thrips tabaci (Thrips) infestation (5-10 Thrips per leaf) at uniform distribution at the beginning of the experiment were chosen for analysis, and 10 leaves at shoulder height were picked and the number of Thrips was determined for each leaf.

Test [3] concerns Spodoptera littoralis stage 2-3 larva. In words: Screening assay for lethality. The test is classed as in vivo. To be noted: PPT 50 ppm added to artificial medium; 3 screens, 4 larva replicates each. The method, then: Spodoptera littoralis stage 2-3 larva were grown in entomology trays on artificial medium. Treatment with PPT was effected by the addition of PPT (50 ppm) to the medium and lethality was assessed. The screening assay was repeated 3 times, with 4 larva replicates in each screen.

The subject of test [4] is Silverleaf whitefly biotype Q (neonicotinoid-resistant strain). The experiment in a line: Lab tests in cotton: nymph mortality of silverleaf whitefly biotype Q. The test is classed as in vivo, Bemisia tabaci. The note with it: cotton plants. The method, then: (§1) Cotton plants were grown in pots and sprayed with the indicated materials using a hand-sprayer. 20-25 females of Silverleaf whitefly biotype B (neonicotinoid-sensitive strain) or biotype Q (neonicotinoid-resistant strain) were transferred to each pot and attached to the treated leaves. Nymphs mortality was evaluated 1 and 2 weeks after treatment application and determined by percent (%) of pupation.

Test [5] relates to Thrips tabaci. The experiment in a line: Field tests in cauliflower: Thrips on leaves and Thrips-induced damage. The test is classed as in vivo. To be noted: another experiment, diafenthiuron 375 g/ha, PPT 400 g/ha; for Thrips adults per leaf / Thrips larva per leaf: cauliflower. The source says: Cauliflower plants of White Corona variety at 20-30 cm height were sprayed twice at a 7 days interval with the indicted materials at a volume of 400-500 liter per hectare, using 3-nozzled ECHO backpack sprayer. The experiment included 4 repeats in random blocks of […] plants growth, each repeat at an area of 20 m^2. plots having high levels of Thrips tabaci (Thrips) infestation (5-10 Thrips per leaf) at uniform distribution at the beginning of the experiment were chosen for analysis, and 10 leaves per plot were picked and assessed for Thrips number. The number of Thrips adults or larva on each leaf was counted using OptiVISOR® magnifying device. The number of silverleaf whitefly (SLW) nymphs on each leaf was also counted using OptiVISOR® magnifying device.
At the end of the experiment the damage to the upper side of leaves caused by Thrips infestation was assessed on a scale of 0-5, where 0 equals no damage and 5 equals scraping on the leaf's blade (surface).

Test [6] has as its system Silverleaf whitefly biotype B (neonicotinoid-sensitive strain). In words: Lab tests in cotton: nymph mortality of silverleaf whitefly biotype B. The class given is in vivo, Bemisia tabaci. The note with it: cotton plants; acetamiprid-treated (FIG. 3A). The method, then:
as §1

The test system of a further test is Aphids (Aphis gossypii). In words: Field tests in cotton: number of Aphids. The class given is in vivo. To be noted: 6 days after the third application; EOS 1%, spinosad 60.5 g/ha, PPT 100 or 300 g/ha (FIG. 4B). The text has this:
Cotton plants were sprayed 3-4 times at 6-7 days interval with the indicated materials at a volume of 400 liter per hectare. The experiment included 4-5 repeats in random blocks of cotton plants growth, each repeat at an area of 8-10 m^2. The number of Thrips adults or larva, as well as the number of Aphids (Aphis gossypii), on each leaf was counted using OptiVISOR® magnifying device.

The mark [7] stands for this setting: 4 DPA, neem oil 1%, PPT alone 225 g/ha.
The mark [8] stands for this setting: 9 DPA, neem oil 1%, PPT alone 225 g/ha.
[9] abbreviates: Day 0 (baseline), neem oil 1%, PPT alone 225 g/ha.

Marks after values point to notes of the source that are not given here.

With `CC(C)=CCC[C@](C)(O)[C@H]1CC[C@]2(C)[C@@H]1[C@H](O)C[C@@H]1[C@@]3(C)CC[C@H](O)C(C)(C)[C@@H]3[C@@H](O)C[C@]12C` [PPT, Protopanaxatriol], the “Average number of hatchings” value in test [1] (day 9 after treatment) is on record as 0.2. In test [1] (day 16 post treatment), the “Average number of larva” value turned out to be 0. Further, the “Average number of late hatchings” value in test [1] (day 16 post treatment) came out at 1.8. Further, the “% efficacy on Thrips in cucumber leaves” value in the test with Thrips tabaci [2] (4 DPA, PPT 500 g/ha) was determined as 65.8%; in the test on Thrips tabaci [2] (setting [7]), 41.4%. Moreover, the “Number of Thrips adults on 10 cucumber leaves” value was 42.5 in the test with Thrips tabaci [2] (4 DPA, PPT 500 g/ha); 78.3 with Thrips tabaci [2] (setting [7]); 18.0 with Thrips tabaci [2] (9 DPA, PPT 500 g/ha); 22.3 in the test on Thrips tabaci [2] (setting [8]); 41.8 with Thrips tabaci [2] (Day 0 (baseline), PPT 500 g/ha); 36.0 with Thrips tabaci [2] (setting [9]). The “Number of Thrips larva on 10 cucumber leaves” value in the test with Thrips tabaci [2] (4 DPA, PPT 500 g/ha) is 30.0^a; in the test on Thrips tabaci [2] (setting [7]), 45.8^a; in the test on Thrips tabaci [2] (9 DPA, PPT 500 g/ha) it was 13.0; in the test with Thrips tabaci [2] (setting [8]), 38.8; with Thrips tabaci [2] (Day 0 (baseline), PPT 500 g/ha), 110.0; in the test on Thrips tabaci [2] (setting [9]), 95.8. The “Number of total Thrips (adults and larva) on 10 cucumber leaves” value in the test with Thrips tabaci [2] (4 DPA, PPT 500 g/ha) is listed as 72.5^a; with Thrips tabaci [2] (setting [7]) it was 124.0; in the test on Thrips tabaci [2] (9 DPA, PPT 500 g/ha) it was 31.0; in the test with Thrips tabaci [2] (setting [8]), 61.0; in the test with Thrips tabaci [2] (Day 0 (baseline), PPT 500 g/ha) it was 151.8; with Thrips tabaci [2] (setting [9]), 131.8. Also, the lethality to larva result in test [3] is “lethal”. Moreover, the “mortality of resistant SLW biotype (Q) nymphs” value in test [4] (PPT 0.075% (0.5x) or 0.15% (1x), dose-dependent (FIG. 3B)) is listed as “up to 93%”. Besides, the “% efficacy on Thrips larva in cauliflower leaves” value in the test on Thrips tabaci [5] (7 DPA) and in the test with Thrips tabaci [5] (14 DPA) was 60% throughout. Moreover, the “Thrips adults per leaf” value is 0.6 per leaf in the test with Thrips tabaci [5] (7 DPA), 0.48^a,b per leaf in the test with Thrips tabaci [5] (14 DPA) and 3.0 per leaf in the test with Thrips tabaci [5] (Day 0 (baseline)). For the same compound, the “Thrips larva per leaf” value in the test with Thrips tabaci [5] (7 DPA) is given as 5.9 per leaf; with Thrips tabaci [5] (14 DPA) it was 4.4^a,b per leaf; in the test with Thrips tabaci [5] (Day 0 (baseline)), 16.5 per leaf.
As to `CC(C)c1cc(Oc2ccccc2)cc(C(C)C)c1NC(=S)NC(C)(C)C` [Diafenthiuron, reference compound], in the test on Thrips tabaci [5] (7 DPA), the “% efficacy on Thrips larva in cauliflower leaves” value worked out at 10%, the “Thrips adults per leaf” value was 1.3 per leaf and the “Thrips larva per leaf” value was 13.9 per leaf. Moreover, in the test on Thrips tabaci [5] (14 DPA), the “% efficacy on Thrips larva in cauliflower leaves” value was determined as 0%, the “Thrips adults per leaf” value turned out to be 2.1 per leaf and the “Thrips larva per leaf” value was 9.8 per leaf. In the test on Thrips tabaci [5] (Day 0 (baseline)), the “Thrips adults per leaf” value is reported as 2.9 per leaf and the “Thrips larva per leaf” value came out at 13.0 per leaf.
Consider `C/C(=N\C#N)N(C)Cc1ccc(Cl)nc1` [Acetamiprid, reference compound], for which, in test [6], the “nymph mortality of SLW biotype B, determined by percent of pupation” value is reported as “efficient in eliminating SLW nymphs”. Besides, the “nymph mortality of SLW biotype Q, determined by percent of pupation” value in test [4] (acetamiprid 10 ppm (FIG. 3B)) was “had no effect”.
In the case of spinosad, the “number of Aphids on the cotton plants” value with Aphids (Aphis gossypii) is recorded as “little or no effect”.
